What was measured:
[1] = A. J. GOWER et al., Eur. J. Pharmacol., 222, (1992), 193-203; cited from earlier work
[2] = system: MPTP-lesioned marmoset model of Parkinson's disease; experiment: L-DOPA-induced dyskinesia score, MPTP-lesioned marmoset (Example 1); type: in vivo, marmosets (Callithrix jacchus); settings: for Dyskinesia: first hour post drug administration, vs L-DOPA + vehicle
Method: (§1) This study was designed to investigate whether levetiracetam has anti-dyskinetic activity in the 1-methyl-4-phenyl-1,2,3,6-tetrahydropyridine (MPTP)-lesioned marmoset model of Parkinson's disease. The effect of levetiracetam on L-3,4-dihydroxyphenylalanine (L-DOPA)-induced dyskinesias and alleviation of parkinsonism symptoms was investigated.
(§2) The study was performed on seven adult marmosets (Callithrix jacchus) bred in a closed colony. The marmosets were rendered parkinsonian by subcutaneous injection of 2 mg/kg MPTP for 5 consecutive days. The marmosets were allowed to recover for 18 weeks until their parkinsonism became stable. The degree of activity and disability before and after MPTP treatment was assessed using a combination of scales that measure locomotor activity, mobility, bradykinesia and posture. Animals were treated with L-DOPA (12.5 mg/kg b.i.d. for 6 weeks) to prime them to elicit dyskinesia.
(§3) All drugs were administered orally in a volume of 5 ml/kg via a syringe in the animal's home cage. The animals were immediately transferred to the experimental cage (60 cm×55 cm×75 cm, with the perch 25 cm from floor of cage) for behavioural assessment. Vehicle was apple juice in all cases.
3)Dyskinesia—non-parametric measures based on the following scale Dyskinesia score: 0=Absent, 1=Mild, fleeting, 2=Moderate, not interfering with normal activity, 3=Marked, at times interfering with normal activity, 4=Severe, continuous, replacing normal activity.
(§4) Behaviour was assessed for 6 hours post drug administration. Behavioural test 1, activity, was assessed every 5 minutes for 6 hours post drug administration. Behavioural tests 2 and 3, parkinsonian disability and dyskinesia, respectively, were assessed for 10 minutes every 30 minutes over the course of 6 hours, by post hoc analysis of video-recordings by an observer blinded to the treatment. The score given in each 10 minutes time period represents the maximum score achieved during that time period.
Table 1 outlines the randomised treatment schedule i.e. three doses of levetiracetam drug in combination with a single dose of L-DOPA. The actions of each of these three combination therapies were compared with that of L-DOPA plus the appropriate vehicle. Thus, a total of four treatments were given.

[3] = system: MPTP-lesioned marmoset model of Parkinson's disease; experiment: Parkinsonian disability score with L-DOPA, MPTP-lesioned marmoset (Example 1); type: in vivo, marmosets (Callithrix jacchus); settings: for Disability scores: levetiracetam 13, 30 and 60 mg/kg + L-DOPA 12 mg/kg, p>0.05
Method: as §1, §2, §3
(§5) 2) Parkinsonian disability—non-parametric measures based on the following scales
(§6) a) Range of movement score: 0=no movement, 1=movement of head on the floor of the cage, 2=movement of limbs, but no locomotion, on the floor of the cage, 3=movement of head or trunk on wall of cage or perch, 4=movement of limbs, but no locomotion, on wall of cage or perch, 5=walking around floor of cage or eating from hopper on floor, 6=hopping on floor of cage, 7=climbing onto wall of cage or perch, 8=climbing up and down the walls of the cage or along perch, 9=running, jumping, climbing between cage walls/perch/roof, uses limbs through a wide range of motion and activity.
(§7) b) Bradykinesia score: 0=normal speed and initiation of movement, 1=mild slowing of movement, 2=moderate slowing, difficulty initiating and maintaining movement, marked freezing, 3=akinetic, unable to move, with prolonged freezing episodes
(§8) c) Postural abnormality score: 0=normal, upright, holds head up, normal balance, 1=abnormal, crouched, face down, may lose balance. […]
as §4, with “The score given in each 10 minutes time period represents the maximum score achieved during that time period.” left out

[4] = system: MPTP-lesioned marmoset model of Parkinson's disease; experiment: L-DOPA-induced dyskinesia score, MPTP-lesioned marmoset (Example 2); type: in vivo, marmosets (Callithrix jacchus); settings: for Dyskinesia: first hour post drug administration, vs L-DOPA + vehicle, p<0.05
Method: (§9) This study was designed to investigate whether the compound ((2S)-2-[(4S)-4-(2,2-difluorovinyl)-2-oxopyrrolidinyl]butanamide) (named compound A) has anti-dyskinetic activity in the 1-methyl-4-phenyl-1,2,3,6-tetrahydropyridine (MPTP)—lesioned marmoset model of Parkinson's disease. The effect of the compound A on L-3,4-dihydroxyphenylalanine (L-DOPA)-induced dyskinesias and alleviation of anti parkinsonism symptoms was investigated.
as §2, with “nine” for “seven”, “(13.9+/−0.8” for “(12.5”
as §3
3)Dyskinesia—non-parametric measures based on the following scale
Dyskinesia score: 0=Absent, 1=Mild, fleeting, 2=Moderate, not interfering with normal activity, 3=Marked, at times interfering with normal activity, 4=Severe, continuous, replacing normal activity.
as §4
Four doses of compound A drug (1 mg/kg, 3 mg/kg, 10 mg/kg and 30 mg/kg) in combination with a single dose of L-DOPA were tested using a randomized treatment schedule. The actions of each of these four combination therapies were compared with that of L-DOPA plus the appropriate vehicle. Thus, a total of five treatments were given.

[5] = system: MPTP-lesioned marmoset model of Parkinson's disease; experiment: Parkinsonian disability score with L-DOPA, MPTP-lesioned marmoset (Example 2); type: in vivo, marmosets (Callithrix jacchus); settings: for Disability scores: compound A 1, 3, 10 and 30 mg/kg + L-DOPA, p>0.05
Method: as §9
as §2, with “nine” for “seven”, “(13.9+/−0.8” for “(12.5”
as §3, §5, §6, §7, §8
as §4, with “The score given in each 10 minutes time period represents the maximum score achieved during that time period.” left out

[6] = system: MPTP-lesioned marmoset model of Parkinson's disease; experiment: Activity and on-time with Ropinirole, MPTP-lesioned marmoset (Example 3); type: in vivo, marmosets (Callithrix jacchus); settings: for "on-time" / Activity: P<0.01; for Enhancement of "on-time": six hour experiment
Method: (§10) This study was designed to investigate whether Levetiracetam has a potential as an adjunctive anti-parkinsonian agent to dopamine replacement therapy in the 1-methyl-4-phenyl-1,2,3,6-tetrahydropyridine (MPTP)-lesioned marmoset model of Parkinson's disease. The effect of Levetiracetam on Ropinirole alleviation of parkinsonism symptoms was investigated. The study was performed on six adult marmosets (Callithrix jacchus; 4 female, 2 male). The marmosets were rendered parkinsonian by subcutaneous injection of 2 mg/kg MPTP for 5 consecutive days. The marmosets were allowed to recover for 18 weeks until their parkinsonism was stable. The degree of activity and disability before and after MPTP treatment were assessed using a combination of scales that measure locomotor activity, mobility, bradykinesia and posture. Animals were treated with L-DOPA 12 mg/kg b.i.d. for 6 weeks. After this time, animals were used for assessment of potential symptomatic antiparkinsonian therapy. All drugs were administered orally in a volume of 5 ml/kg via a syringe in the animal's home cage. The animals were immediately transferred to an experimental cage (60 cm×55 cm×75 cm, with the perch 25 cm from floor of cage) for behavioural assessment. Vehicle was apple juice in all cases. The doses were 3.75 mg/kg of Ropinirole in combination with Levetiracetam at 13, 30 and 60 mg/kg. Behaviour was assessed for 6 hours post drug administration. 1) Activity—a quantitative assessment using computer-based activity monitors was obtained every 5 minutes for the duration of the experiment. Behavioural test 1 (activity) was assessed every 5 minutes for 6 hours post drug administration. Behavioural tests 2 (parkinsonian disability) was assessed for 10 minutes every 30 minutes over the course of 6 hours, by post hoc analysis of video-recordings by an observer blinded to the treatment. The score given/achieved in each 10 minute time period was presented. Cumulated data for parkinsonian disability, range of movement, bradykinesia and postural abnormalities were analysed with a non-parametric repeated measures one-way ANOVA (Friedman's test) followed by Dunn's multiple comparison test (Graphpad Prism version 3).

[7] = system: MPTP-lesioned marmoset model of Parkinson's disease; experiment: Parkinsonian disability with Ropinirole, MPTP-lesioned marmoset (Example 3); type: in vivo, marmosets (Callithrix jacchus); settings: for Parkinsonian disability: Levetiracetam 13 mg/kg + Ropinirole 3.75 mg/kg
Method: as §10, with “1) Activity—a quantitative assessment using computer-based activity monitors was obtained every 5 minutes for the duration of the experiment.” left out, “presented.” for “presented. Cumulated data for parkinsonian disability, range of movement, bradykinesia and postural abnormalities were analysed with a non-parametric repeated measures one-way ANOVA (Friedman's test) followed by Dunn's multiple comparison test (Graphpad Prism version 3).”

[8] = L-DOPA alone (13.9+/−0.8 mg/kg), oral
[9] = any time-point after one hour post drug administration
[10] = first hour post drug administration
[11] = Levetiracetam 13 mg/kg + Ropinirole 3.75 mg/kg
[12] = Levetiracetam 30 mg/kg + Ropinirole 3.75 mg/kg

## CC[C@H](C(N)=O)N1CCCC1=O [(R)-(+)-α-ethyl-2-oxo-1-pyrrolidine-acetamide]
[1]
  Activity in the treatment of epilepsy: completely devoid of activity

## N[C@@H](Cc1ccc(O)c(O)c1)C(=O)O [L-DOPA, L-3,4-dihydroxyphenylalanine]
[2]; L-DOPA 12 mg/kg alone, oral
  Dyskinesia accompanying alleviation of parkinsonian symptoms: severe dyskinesia
[3]; L-DOPA 12 mg/kg alone, oral
  Effect on parkinsonian symptoms: reversed parkinsonian symptoms
[4]; [8]
  Dyskinesia accompanying alleviation of parkinsonian symptoms: accompanied by dyskinesia
[5]; [8]
  Effect on parkinsonian symptoms: reversed parkinsonian symptoms

## CC[C@@H](C(N)=O)N1C[C@H](C=C(F)F)CC1=O [compound A, (2S)-2-[(4S)-4-(2,2-difluorovinyl)-2-oxopyrrolidinyl]butanamide]
[4]; compound A 10 mg/kg + L-DOPA 13.9+/−0.8 mg/kg oral
  Dyskinesia: significantly reduced
[4]; compound A 30 mg/kg + L-DOPA 13.9+/−0.8 mg/kg oral
  Dyskinesia: significantly reduced
[4]; compound A 1, 3, 10 and 30 mg/kg + L-DOPA, any time-point after one hour post drug administration, p>0.05
  Dyskinesia scores: no significant differences
[5]; [9]
  Disability scores: no significant differences
[5]; [10]
  Disability scores: no significant differences
[5]; compound A 1 to 30 mg/kg + L-DOPA 13.9+/−0.8 mg/kg
  Reversal of parkinsonian symptoms at peak effect, compared with L-DOPA monotherapy: same magnitude

## CC[C@@H](C(N)=O)N1CCCC1=O [levetiracetam, (S)-α-ethyl-2-oxo-1-pyrrolidineacetamide]
[2]; levetiracetam 13 mg/kg + L-DOPA 12 mg/kg oral, p<0.01
  Dyskinesia: significantly reduced
[2]; levetiracetam 30 mg/kg + L-DOPA 12 mg/kg oral, p<0.05
  Dyskinesia: significantly reduced
[2]; levetiracetam 60 mg/kg + L-DOPA 12 mg/kg oral, p<0.01
  Dyskinesia: significantly reduced
[2]; levetiracetam 13, 30 and 60 mg/kg + L-DOPA 12 mg/kg, any time-point after one hour post drug administration, p>0.05
  Dyskinesia scores: no significant differences
[3]; [9]
  Disability scores: no significant differences
[3]; [10]
  Disability scores: no significant differences
[3]; levetiracetam 13 to 60 mg/kg + L-DOPA 12 mg/kg
  Reversal of parkinsonian symptoms at peak effect, compared with L-DOPA monotherapy: same magnitude
[6]; [11]
  "on-time": significantly increased
  Activity: significantly increased
  Enhancement of "on-time": approximately 82%
[6]; [12]
  "on-time": significantly increased
  Activity: significantly increased
  Enhancement of "on-time": ~69%
[7]; Levetiracetam 13 mg/kg + Ropinirole 3.75 mg/kg oral
  Potentiation of the alleviation of parkinsonism by Ropinirole: significantly potentiated
[7]; during 3-4 hour time period, P<0.05
  Parkinsonian disability: significantly reduced
[7]; over the experiment as a whole, P<0.05
  Parkinsonian disability: significantly reduced
[7]; Levetiracetam 30 mg/kg + Ropinirole 3.75 mg/kg oral
  Potentiation of the alleviation of parkinsonism by Ropinirole: significantly potentiated
[7]; Levetiracetam 30 mg/kg + Ropinirole 3.75 mg/kg, during the 0-1 hour time period, P<0.05
  Range of movement: significantly increased
[7]; Levetiracetam 60 mg/kg + Ropinirole 3.75 mg/kg oral
  Potentiation of the alleviation of parkinsonism by Ropinirole: not

Source: patent US20040242671A1, “Use of 2-oxo-1-pyrrolidine derivatives for the preparation of a drug” (priority 2001, published 2004)
